In US20050014743A1, “Combination of an NMDA receptor antagonist and a selective serotonin reuptake inhibitor for the treatment of depression and other mood disorders” (Forest Laboratories, Inc., priority 2003, published 2005):
“Also recorded” adds a separate entry of the source.

Tests used:
C57/B1 mice [1] = experiment: mouse tail suspension test (TST); type: in vivo; settings: for immobility: given with vehicle; for duration of immobility: monotherapy, doses 5-20 mg/kg IP
C57/B1 mice [2] = experiment: locomotor activity test (actometers, 6 min); type: in vivo, mouse
5-HT3 receptor = settings: cited from earlier work; for inhibition of 5HT3-mediated current: memantine: native N1E-115 and heterologous HEK-293 cells
NMDA receptor = target: T1, NMDA receptor (Rattus norvegicus, UniProt P35439); settings: rat hippocampal slices; cited from earlier work
T1 construct: NMDA receptor-mediated currents (in rat hippocampal slices); from tissue; host or cells: rat hippocampal slices

Row | Compound | immobility (C57/B1 mice [1]; 20 mg/kg IP) | duration of immobility (C57/B1 mice [1]) | locomotor activity (C57/B1 mice [2]; mouse, in vivo) | inhibition of 5HT3-mediated current (5-HT3 receptor) | other results
1 | CNCCC(Oc1ccc(C(F)(F)F)cc1)c1ccccc1 (stereo not shown) [FLU, fluoxetine] | decreased immobility | decrease in the duration of immobility | did not change locomotor activity; also recorded: generally did not affect locomotor activity | – | –
2 | CN(C)CCCN1c2ccccc2CCc2ccccc21 [IMI, imipramine] | decreased immobility | decrease in the duration of immobility | decreased it; also recorded: decreased locomotor activity | – | locomotor activity (C57/B1 mice [2]; mouse, in vivo, ip, 20 mg/kg): decreased locomotor activity
3 | CC1(C)CC(C)(C)CC(C)(N)C1 [NER, 1-amino-1,3,3,5,5-pentamethylcyclohexane] | – | decreased the duration of immobility | – | inhibit | immobility (C57/B1 mice [1]; 2.5 mg/kg IP, 2.5 mg/kg): increased immobility; also recorded: without effect on immobility time; immobility (C57/B1 mice [1]; 20 mg/kg IP, 20 mg/kg): decreased immobility; locomotor activity (C57/B1 mice [2]; given with vehicle (combination study), 20 mg/kg IP): increased locomotor activity; locomotor activity (C57/B1 mice [2]; monotherapy, doses 5-20 mg/kg IP): increased locomotor activity; also recorded: consistent locomotor stimulation
4 | COc1ccc(C(CN(C)C)C2(O)CCCCC2)cc1 (stereo not shown) [VEN, venlafaxine] | decreased immobility | decrease in the duration of immobility | – | – | immobility (C57/B1 mice [1]; 5 mg/kg IP): decreased immobility; locomotor activity (C57/B1 mice [2]; given with vehicle (combination study), 20 mg/kg IP, 20 mg/kg): increased locomotor activity; also recorded: also observed for the dose of 20 mg/kg in one of two studies; locomotor activity (C57/B1 mice [2]; given with vehicle, 5 mg/kg IP, 5 mg/kg): without effect; locomotor activity (C57/B1 mice [2]; monotherapy, 40 mg/kg IP, 40 mg/kg): increased it; also recorded: stimulated locomotion
5 | CC12CC3CC(C)(C1)CC(N)(C3)C2 [memantine, 1-amino-3,5-dimethyl adamantane] | – | – | – | inhibit | affinity for 5HT3-mediated current relative to NMDA receptor-mediated currents (5-HT3 receptor; N1E-115 / HEK-293 cells vs rat hippocampal slices): approximately equal affinity; inhibition of NMDA receptor-mediated currents (NMDA receptor): inhibit
